Assay results from PubChem BioAssay (NCI).
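Growth conditions: 96-well plates. Treatment: test compound, 48 hours, 5 concentrations. Analysis: linear interpolation between bracketing concentrations; unreached endpoints set to highest concentration. The concentration for 50% growth inhibition is given as GI50. TGI: total growth inhibition.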

How the values were obtained:
Assay in all cases: growth of human tumour cells (NCI), 48 h
COLO 205 colon = test system: COLO 205 colon
HOP-92 NSCLC = test system: HOP-92 NSCLC
HT29 colon = test system: HT29 colon
A498 renal = test system: A498 renal
SR leukemia = test system: SR leukemia
786-0 renal = test system: 786-0 renal
HL-60(TB) leukemia = test system: HL-60(TB) leukemia
NCI/ADR-RES ovarian = test system: NCI/ADR-RES ovarian
NCI-H23 lung = test system: NCI-H23 lung
SK-MEL-28 melanoma = test system: SK-MEL-28 melanoma
SK-MEL-5 melanoma = test system: SK-MEL-5 melanoma
ACHN renal = test system: ACHN renal
SN12C renal = test system: SN12C renal
MCF7 breast = test system: MCF7 breast
UO-31 renal = test system: UO-31 renal
T-47D breast = test system: T-47D breast
A549 NSCLC = test system: A549 NSCLC
K-562 leukemia = test system: K-562 leukemia
SNB-19 CNS = test system: SNB-19 CNS
SF-539 CNS = test system: SF-539 CNS
OVCAR-3 ovarian = test system: OVCAR-3 ovarian
SW-620 colon = test system: SW-620 colon
HCT-15 colon = test system: HCT-15 colon
SK-MEL-2 melanoma = test system: SK-MEL-2 melanoma
OVCAR-5 ovarian = test system: OVCAR-5 ovarian
NCI-H460 lung = test system: NCI-H460 lung
IGROV1 ovarian = test system: IGROV1 ovarian
RPMI-8226 leukemia = test system: RPMI-8226 leukemia
HCC-2998 colon = test system: HCC-2998 colon
U251 CNS = test system: U251 CNS
SF-268 CNS = test system: SF-268 CNS
HOP-62 NSCLC = test system: HOP-62 NSCLC
M14 melanoma = test system: M14 melanoma
PC-3 prostate = test system: PC-3 prostate
KM12 colon = test system: KM12 colon
OVCAR-4 ovarian = test system: OVCAR-4 ovarian
NCI-H522 lung = test system: NCI-H522 lung
OVCAR-8 ovarian = test system: OVCAR-8 ovarian
UACC-62 melanoma = test system: UACC-62 melanoma
CCRF-CEM leukemia = test system: CCRF-CEM leukemia
HCT-116 colon = test system: HCT-116 colon
LOX IMVI melanoma = test system: LOX IMVI melanoma
BT-549 breast = test system: BT-549 breast
MDA-MB-231 breast = test system: MDA-MB-231 breast
NCI-H226 lung = test system: NCI-H226 lung
CAKI-1 renal = test system: CAKI-1 renal
HS 578T breast = test system: HS 578T breast
DU-145 prostate = test system: DU-145 prostate
RXF 393 renal = test system: RXF 393 renal
MOLT-4 leukemia = test system: MOLT-4 leukemia
MDA-MB-435 = test system: MDA-MB-435
MALME-3M melanoma = test system: MALME-3M melanoma
UACC-257 melanoma = test system: UACC-257 melanoma
SNB-75 CNS = test system: SNB-75 CNS
EKVX NSCLC = test system: EKVX NSCLC
SF-295 CNS = test system: SF-295 CNS
SK-OV-3 ovarian = test system: SK-OV-3 ovarian
TK-10 renal = test system: TK-10 renal

COC(=O)c1ccc2[nH]c(O)c(C(=Nc3ccc(N(C)C(=O)CN4CCN(C)CC4)cc3)c3ccc(OC)cc3)c2c1
GI50 (COLO 205 colon): 664 nM
TGI (COLO 205 colon): 2340 nM
GI50 (HOP-92 NSCLC): 3.7 µM
TGI (HOP-92 NSCLC): 15.2 µM
GI50 (HT29 colon): 1110 nM
TGI (HT29 colon): 25.2 µM
GI50 (A498 renal): 1520 nM
TGI (A498 renal): 3.11 µM
GI50 (SR leukemia): 309 nM
TGI (SR leukemia): 4.92 µM
GI50 (786-0 renal): 730 nM
TGI (786-0 renal): 2130 nM
GI50 (HL-60(TB) leukemia): 712 nM
TGI (HL-60(TB) leukemia): 3.15 µM
GI50 (NCI/ADR-RES ovarian): 12.5 µM
TGI (NCI/ADR-RES ovarian): 37.2 µM
GI50 (NCI-H23 lung): 1250 nM
TGI (NCI-H23 lung): 3.64 µM
GI50 (SK-MEL-28 melanoma): 3.15 µM
TGI (SK-MEL-28 melanoma): 14 µM
GI50 (SK-MEL-5 melanoma): 1350 nM
TGI (SK-MEL-5 melanoma): 2770 nM
GI50 (ACHN renal): 1710 nM
TGI (ACHN renal): 10.3 µM
GI50 (SN12C renal): 410 nM
TGI (SN12C renal): 13.1 µM
GI50 (MCF7 breast): 518 nM
TGI (MCF7 breast): 2490 nM
GI50 (UO-31 renal): 1370 nM
TGI (UO-31 renal): 4.46 µM
GI50 (T-47D breast): 1820 nM
TGI (T-47D breast): 18.1 µM
GI50 (A549 NSCLC): 2010 nM
TGI (A549 NSCLC): 12.1 µM
GI50 (K-562 leukemia): 255 nM
TGI (K-562 leukemia): 10.2 µM
GI50 (SNB-19 CNS): 2100 nM
TGI (SNB-19 CNS): 10 µM
GI50 (SF-539 CNS): 473 nM
TGI (SF-539 CNS): 1760 nM
GI50 (OVCAR-3 ovarian): 1230 nM
TGI (OVCAR-3 ovarian): 2830 nM
GI50 (SW-620 colon): 756 nM
TGI (SW-620 colon): 4.35 µM
GI50 (HCT-15 colon): 1810 nM
TGI (HCT-15 colon): 6.61 µM
GI50 (SK-MEL-2 melanoma): 2040 nM
TGI (SK-MEL-2 melanoma): 7.04 µM
GI50 (OVCAR-5 ovarian): 5.21 µM
TGI (OVCAR-5 ovarian): 17.6 µM
GI50 (NCI-H460 lung): 1480 nM
TGI (NCI-H460 lung): 3.76 µM
GI50 (IGROV1 ovarian): 226 nM
TGI (IGROV1 ovarian): 2600 nM
GI50 (RPMI-8226 leukemia): 1460 nM
TGI (RPMI-8226 leukemia): 4.4 µM
GI50 (HCC-2998 colon): 2120 nM
TGI (HCC-2998 colon): 10.6 µM
GI50 (U251 CNS): 1090 nM
TGI (U251 CNS): 2480 nM
GI50 (SF-268 CNS): 2610 nM
TGI (SF-268 CNS): 13.6 µM
GI50 (HOP-62 NSCLC): 1570 nM
TGI (HOP-62 NSCLC): 12.4 µM
GI50 (M14 melanoma): 724 nM
TGI (M14 melanoma): 2280 nM
GI50 (PC-3 prostate): 1160 nM
TGI (PC-3 prostate): 7.77 µM
GI50 (KM12 colon): 43.2 nM
TGI (KM12 colon): 6.45 µM
GI50 (OVCAR-4 ovarian): 928 nM
TGI (OVCAR-4 ovarian): 3.14 µM
GI50 (NCI-H522 lung): 1660 nM
TGI (NCI-H522 lung): 5.6 µM
GI50 (OVCAR-8 ovarian): 1180 nM
TGI (OVCAR-8 ovarian): 24.6 µM
GI50 (UACC-62 melanoma): 4.96 µM
TGI (UACC-62 melanoma): 18.6 µM
GI50 (CCRF-CEM leukemia): 414 nM
TGI (CCRF-CEM leukemia): 11.1 µM
GI50 (HCT-116 colon): 227 nM
TGI (HCT-116 colon): 10.1 µM
GI50 (LOX IMVI melanoma): 506 nM
TGI (LOX IMVI melanoma): 2130 nM
GI50 (BT-549 breast): 1150 nM
TGI (BT-549 breast): 2650 nM
GI50 (MDA-MB-231 breast): 1070 nM
TGI (MDA-MB-231 breast): 2950 nM
GI50 (NCI-H226 lung): 906 nM
TGI (NCI-H226 lung): 18.9 µM
GI50 (CAKI-1 renal): 383 nM
TGI (CAKI-1 renal): 11.1 µM
GI50 (HS 578T breast): 186 nM
TGI (HS 578T breast): 10.3 µM
GI50 (DU-145 prostate): 2370 nM
TGI (DU-145 prostate): 11.3 µM
GI50 (RXF 393 renal): 466 nM
TGI (RXF 393 renal): 1820 nM
GI50 (MOLT-4 leukemia): 414 nM
TGI (MOLT-4 leukemia): 3.62 µM
GI50 (MDA-MB-435): 2050 nM
TGI (MDA-MB-435): 14.5 µM
GI50 (MALME-3M melanoma): 1330 nM
TGI (MALME-3M melanoma): 2720 nM
GI50 (UACC-257 melanoma): 10.5 µM
TGI (UACC-257 melanoma): 22.8 µM
GI50 (SNB-75 CNS): 294 nM
TGI (SNB-75 CNS): 8.27 µM
GI50 (EKVX NSCLC): 2380 nM
TGI (EKVX NSCLC): 12.4 µM
GI50 (SF-295 CNS): 1250 nM
TGI (SF-295 CNS): 3.49 µM
GI50 (SK-OV-3 ovarian): 228 nM
TGI (SK-OV-3 ovarian): 1750 nM
GI50 (TK-10 renal): 2390 nM
TGI (TK-10 renal): 12.4 µM
